Reference: US10954252B1, “Inhibitors of human immunodeficiency virus replication” (ViiV HEALTHCARE UK (NO.5) LIMITED, priority 2017, dated 2021)
pEC50: −log10 of the molar value.

What was measured:
[1] = tested on: recombinant NL4-3 virus (nef section replaced with Renilla luciferase gene) in MT-2 cells; assay: HIV cell culture assay (antiviral activity, luciferase readout); type: cell-based; conditions: MT-2 cells infected for 4-5 days with recombinant NL4-3 luciferase virus
Method: HIV cell culture assay—MT-2 cells, 293T cells and the proviral DNA clone of NL4-3 virus were obtained from the NIH AIDS Research and Reference Reagent Program. MT-2 cells were propagated in RPMI 1640 media supplemented with 10% heat inactivated fetal bovine serum (FBS), 100 μg/ml penicillin G and up to 100 units/mL streptomycin. The 293T cells were propagated in DMEM media supplemented with 10% heat inactivated FBS, 100 μg/mL penicillin G and 100 μg/mL streptomycin. A recombinant NL4-3 proviral clone, in which a section of the nef gene was replaced with the Renilla luciferase gene, was used to make the reference virus used in these studies. The recombinant virus was prepared through transfection of the recombinant NL4-3 proviral clone into 293T cells using Transit-293 Transfection Reagent from Mirus Bio LLC (Madison, Wis.). Supernatent was harvested after 2-3 days and the amount of virus present was titered in MT-2 cells using luciferase enzyme activity as a marker by measuring luciferase enzyme activity. Luciferase was quantitated using the EnduRen Live Cell Substrate from Promega (Madison, Wis.). Antiviral activities of compounds toward the recombinant virus were quantified by measuring luciferase activity in MT-2 cells infected for 4-5 days with the recombinant virus in the presence of serial dilutions of the compound.
The 50% effective concentration (ECs) was calculated by using the exponential form of the median effect equation where (Fa)=1/[1+(ED50/drug conc.)^m] (Johnson Va., Byington RT. Infectivity Assay. In Techniques in HIV Research. ed. Aldovini A, Walker BD. 71-76. New York: Stockton Press. 1990).

[2] = Compound cytotoxicity, XTT-based colorimetric assay; type: cell-based; conditions: human, uninfected MT2 cells
Method: Compound cytotoxicity and the corresponding CC50 values were determined using the same protocol as described in the antiviral assay except that uninfected cells were used. Cytotoxicity was assessed on day 4 in uninfected MT2 cells by using a XTT (2,3-bis[2-Methoxy-4-nitro-5-sulfophenyl]-2H-tetrazolium-5-carboxyanilide inner salt)-based colorimetric assay (Sigma-Aldrich, St Louis, Mo.). Biological data for select compounds of the invention are contained in Table 1 and Table 1a

`COc1ccc2c(=O)n(-c3ccc(Cl)c4c(NS(C)(=O)=O)nn(CC(F)F)c34)c([C@H](Cc3cc(F)cc(F)c3)NC(=O)Cn3ccc(C4CC4)n3)nc2n1` (atropisomer, axis not shown) [Example 55.1, N-[(1S)-1-{3-[4-chloro-1-(2,2-difluoroethyl)-3-methanesulfonamido-1H-indazol-7-yl]-7-methoxy-4-oxo-3H,4H-pyrido[2,3-d]pyrimidin-2-yl}-2-(3,5-difluorophenyl)ethyl]-2-(3-cyclopropyl-1H-pyrazol-1-yl)acetamide] showed a pEC50 ([1]; Table 1a) of 7.55 and a CC50 at 4 days ([2]; Table 1a, day 4, XTT) greater than 1000 nM.

Compound `CC(C)c1ccc(-c2c(C(Cc3cc(F)cc(F)c3)NC(=O)Cn3nc(C(F)F)c4c3C(F)(F)[C@@H]3C[C@H]43)ncc3[nH]ncc23)cn1` (mixture of isomers) [Example 10.1] has a pEC50 ([1]; Renilla, NL43, Table 1) of 6.85 and a CC50 at 4 days ([2]; Table 1, day 4, XTT) greater than 10000 nM.

`Cn1nc(NS(C)(=O)=O)c2c(Cl)ccc(-n3c(C(Cc4cc(F)cc(F)c4)NC(=O)Cn4nc(C(F)F)c5c4C(F)(F)[C@@H]4C[C@H]54)nc4ncc(C#N)cc4c3=O)c21` (mixture of isomers) [Example 37.2, N-(1-(3-(4-chloro-1-methyl-3-(methylsulfonamido)-1H-indazol-7-yl)-6-cyano-4-oxo-3,4-dihydropyrido[2,3-d]pyrimidin-2-yl)-2-(3,5-difluorophenyl)ethyl)-2-((3bS,4aR)-3-(difluoromethyl)-5,5-difluoro-3b,4,4a,5-tetrahydro-1H-cyclopropa[3,4]cyclopenta[1,2-c]pyrazol-1-yl)acetamide] showed a pEC50 ([1]; Renilla, NL43, Table 1a) of 9.27 and a CC50 at 4 days ([2]; Table 1a, day 4, XTT) greater than 10000 nM.

With `Cn1nc(NS(C)(=O)=O)c2c(Cl)ccc(-n3c(C(Cc4cc(F)cc(F)c4)NC(=O)Cn4nc(C(F)F)c5c4C(F)(F)[C@@H]4C[C@H]54)nc4nc(C#N)ccc4c3=O)c21` (mixture of isomers) [Example 40.1, N-(1-(3-(4-chloro-1l-methyl-3-(methylsulfonamido)-1H-indazol-7-yl)-7-cyano-4-oxo-3,4-dihydropyrido[2,3-d]pyrimidin-2-yl)-2-(3,5-difluorophenyl)ethyl)-2-((3bS,4aR)-3-(difluoromethyl)-5,5-difluoro-3b,4,4a,5-tetrahydro-1H-cyclopropa[3,4]cyclopenta[1,2-c]pyrazol-1-yl)acetamide] the pEC50 ([1]; Renilla, NL43, Table 1a) was 9.24 and the CC50 at 4 days ([2]; Table 1a, day 4, XTT) was greater than 1000 nM.

With `Cc1ccc2c(=O)n(-c3ccc(Cl)c4c(NS(C)(=O)=O)nn(C)c34)c(C(Cc3cc(F)cc(F)c3)NC(=O)Cn3nc(C(F)F)c4c3C(F)(F)[C@@H]3C[C@H]43)nc2n1` (mixture of isomers) [Example 41.1] the pEC50 ([1]; Renilla, NL43, Table 1a) was 7.67 and the CC50 at 4 days ([2]; Table 1a, day 4, XTT) was greater than 10000 nM.

In the case of `Cc1ccc2c(=O)n(-c3ccc(Cl)c4c(NS(C)(=O)=O)nn(C)c34)c([C@H](Cc3cc(F)cc(F)c3)NC(=O)Cn3nc(C(F)F)c4c3C(F)(F)[C@@H]3C[C@H]43)nc2n1` (mixture of isomers) [Example 41.2, N-[(1S)-1-[3-(4-chloro-3-methanesulfonamido-1-methyl-1H-indazol-7-yl)-7-methyl-4-oxo-3H,4H-pyrido[2,3-d]pyrimidin-2-yl]-2-(3,5-difluorophenyl)ethyl]-2-[(2S,4R)-9-(difluoromethyl)-5,5-difluoro-7,8-diazatricyclo[4.3.0.0^2,4]nona-1(6),8-dien-7-yl]acetamide], the pEC50 ([1]; Renilla, NL43, Table 1a) was 10.66 and the CC50 at 4 days ([2]; Table 1a, day 4, XTT) was greater than 10000 nM.

`Cc1cc(C)c2c(=O)n(-c3ccc(Cl)c4c(NS(C)(=O)=O)nn(C)c34)c(C(Cc3cc(F)cc(F)c3)NC(=O)Cn3nc(C(F)F)c4c3C(F)(F)[C@@H]3C[C@H]43)nc2n1` (mixture of isomers) [Example 42.1] showed a pEC50 ([1]; Renilla, NL43, Table 1a) of 7.92 and a CC50 at 4 days ([2]; Table 1a, day 4, XTT) greater than 10000 nM.

Compound `CC(C)n1nc(NS(C)(=O)=O)c2c(Cl)ccc(-n3c(C(Cc4cc(F)cc(F)c4)NC(=O)Cn4nc(C(F)F)c5c4C(F)(F)[C@@H]4C[C@H]54)nc4ncccc4c3=O)c21` (mixture of isomers) [Example 43.1] has a pEC50 ([1]; Renilla, NL43, Table 1a) of 7.52 and a CC50 at 4 days ([2]; Table 1a, day 4, XTT) greater than 10000 nM.

`CC(C)n1nc(NS(C)(=O)=O)c2c(Cl)ccc(-n3c([C@H](Cc4cc(F)cc(F)c4)NC(=O)Cn4nc(C(F)F)c5c4C(F)(F)[C@@H]4C[C@H]54)nc4ncccc4c3=O)c21` (mixture of isomers) [Example 43.2, N-[(1S)-1-{3-[4-chloro-3-methanesulfonamido-1-(propan-2-yl)-1H-indazol-7-yl]-4-oxo-3H,4H-pyrido[2,3-d]pyrimidin-2-yl}-2-(3,5-difluorophenyl)ethyl]-2-[(2S,4R)-9-(difluoromethyl)-5,5-difluoro-7,8-diazatricyclo[4.3.0.0^2,4]nona-1(6),8-dien-7-yl]acetamide] showed a pEC50 ([1]; Renilla, NL43, Table 1a) of 9.88 and a CC50 at 4 days ([2]; Table 1a, day 4, XTT) greater than 10000 nM.

`O=C(Cn1nc(C(F)F)c2c1C(F)(F)[C@@H]1C[C@H]21)N[C@@H](Cc1cc(F)cc(F)c1)c1nc2ncccc2c(=O)n1-c1ccc(Cl)c2c(NS(=O)(=O)C3CC3)nn(CC(F)F)c12` (mixture of isomers) [Example 45.2, N-[(1S)-1-{3-[4-chloro-3-cyclopropanesulfonamido-1-(2,2-difluoroethyl)-1H-indazol-7-yl]-4-oxo-3H,4H-pyrido[2,3-d]pyrimidin-2-yl}-2-(3,5-difluorophenyl)ethyl]-2-[(2S,4R)-9-(difluoromethyl)-5,5-difluoro-7,8-diazatricyclo[4.3.0.0^2,4]nona-1(6),8-dien-7-yl]acetamide] showed a pEC50 ([1]; Renilla, NL43, Table 1a) of 10.62 and a CC50 at 4 days ([2]; Table 1a, day 4, XTT) greater than 1000 nM.

In the case of `COc1cccc2c(=O)n(-c3ccc(Cl)c4c(NS(C)(=O)=O)nn(C)c34)c([C@H](Cc3cc(F)cc(F)c3)NC(=O)Cn3nc(C(F)F)c4c3C(F)(F)[C@@H]3C[C@H]43)nc12` (single isomer, unassigned) [Example 103], the CC50 at 4 days ([2]; Table 1a, day 4, XTT) was greater than 1000 nM.

`Cn1nc(NS(C)(=O)=O)c2c(Cl)ccc(-n3c([C@H](Cc4cc(F)cc(F)c4)NC(=O)Cn4ccc(C5CC5)n4)nc4cc(C(F)(F)F)ccc4c3=O)c21` (single isomer, unassigned) [Example 150] gave a CC50 at 4 days ([2]; Table 1a, day 4, XTT) greater than 1000 nM.

For `COc1cc(F)c2c(=O)n(-c3ccc(Cl)c4c(NS(C)(=O)=O)nn(C)c34)c([C@H](Cc3cc(F)cc(F)c3)NC(=O)Cn3ccc(C4CC4)n3)nc2c1` [Example 188, (S)—N-(1-(3-(4-chloro-1-methyl-3-(methylsulfonamido)-1H-indazol-7-yl)-5-fluoro-7-methoxy-4-oxo-3,4-dihydroquinazolin-2-yl)-2-(3,5-difluorophenyl)ethyl)-2-(3-cyclopropyl-1H-pyrazol-1-yl)acetamide], the CC50 at 4 days ([2]; Table 1a, day 4, XTT) was greater than 1000 nM.

In the case of `Cn1nc(NS(C)(=O)=O)c2c(Cl)ccc(-n3c([C@H](Cc4cc(F)cc(F)c4)NC(=O)Cn4ccc(C5CC5)n4)nc4cc(CS(C)(=O)=O)ccc4c3=O)c21` [Example 205, (S)—N-(1-(3-(4-chloro-1-methyl-3-(methylsulfonamido)-1H-indazol-7-yl)-7-((methylsulfonyl)methyl)-4-oxo-3,4-dihydroquinazolin-2-yl)-2-(3,5-difluorophenyl)ethyl)-2-(3-cyclopropyl-1H-pyrazol-1-yl)acetamide], the CC50 at 4 days ([2]; Table 1a, day 4, XTT) was greater than 1000 nM.
